Results published in US7709451B2, “Method and composition for treating immune complex associated disorders” (Trustees of Boston University, priority 1997, dated 2010).
Entries after “also recorded” stand apart in the source; their conditions may differ.

Key:
[1] = system: AM14 RF+ B cells; assay: RF+ B cell proliferation (3[H]-thymidine incorporation); format: cell-based, mouse; details: for Inhibition of RF+ B cell response to mAb PL2-3 / chromatin-containing IC: FIGS. 5A-5C
Experimental: Cell culture and reagents. Spleen cell preparations were T-depleted and cultured with the appropriate ligands for 40-48 hrs. In some experiments, B cells were preincubated with CD40L as described (Rifkin, et al., J. Immunol. 165, 1626-1633 (2000)). Proliferation was assessed by ^3[H]-thymidine incorporation during the final 16 hours of culture. Data are presented as the mean percentage of the anti-IgM response from triplicate cultures. The percentage of the anti-IgM response was calculated according to the formula: [(cpm experimental condition−cpm CD40L alone)/(cpm anti-IgM−cpm CD40L alone)×100].
In some experiments, DNase I (type IV) (Sigma, St. Louis, Mo.), chloroquine (Sigma), concanamycin B, bafilomycin A (Sigma), or 12 μg/ml of the inhibitory CpG S-ODN 2008 (Lenart, et al., Antisense Nucleic Acid Drug Dev. 4, 247-256 (2001)) (Oligo's Etc.) were added to the cultures 15-30 min-2 hr before the addition of the ligands.

[2] = in vivo; cited from earlier work
[3] = system: CD11c positive dendritic cells from bone marrow of C57BL/6 mice; assay: Dendritic cell activation (TNF-α and IL-12 ELISA, CD86 flow cytometry); format: cell-based, mouse; details: for TNF-α in culture supernatants (ELISA): 48 hours
Experimental: Dendritic cells were generated from the bone marrow of C57BL/6 mice by in vitro culture with GM-CSF and IL-4 for 6 days. On day 6, the CD11c positive dendritic cells were isolated using magnetic beads (Miltenyi Biotec) and either pre-incubated, or not pre-incubated, for 30 minutes with ODN 2088, an inhibitory oligodeoxynucleotide that specifically blocks signaling through TLR9. The stimulatory ODN 1826 (CpG, 3 μg/ml), that specifically activates through TLR9, or lipopolysaccharide (LPS, 10 μg/ml), that activates through TLR4, or culture medium only (media), was then added to the cultures. After 48 hours, levels of TNF-α (8A) and IL-12 (8B) in the culture supernatants were measured by ELISA (results shown as OD units determined by absorption at 405 nm). After removal of the supernatants, cells were collected and analyzed by flow cytometry for expression of the co-stimulatory molecule CD86 (8c). Unstimulated refers to the level of expression of CD86 in the presence of media alone, whereas stimulated refers to the level of expression of CD86 in the presence of the stimulus (ODN 1826 or LPS).
Dendritic cells were generated from the bone marrow of C57BL/6 mice by in vitro culture with GM-CSF and IL-4 for 6 days. On day 6, the CD11c positive dendritic cells were isolated using magnetic beads (Miltenyi Biotec). The dendritic cells were then either pre-incubated, or not pre-incubated, for 30 minutes with ODN 2088 at 12 μg/ml. The stimulatory ODN 1826 (3 μg/ml), that specifically activates through TLR9, lipopolysaccharide (LPS, 10 μg/ml), that activates through TLR4, the anti-chromatin antibody PL2-3 (50 μg/ml), three different antibody/protein ratios of α-TNP/TNP-BSA immune complexes (50 μg/ml), or the culture medium only (media), was then added to the cultures. After 48 hours, levels of TNF-α in the culture supernatants was measured by ELISA (results shown as pg/ml; lower level of sensitivity of assay is 50 pg/ml). A representative experiment of 3 similar experiments is shown.
(§1) Dendritic cells were generated from the bone marrow of C57BL/6 wildtype mice and from C57BL/6 mice lacking the Fc receptor γ chain in by in vitro culture of the bone marrow cells with GM-CSF and IL-4 for 6 days. On day 6, the CD11c positive dendritic cells were isolated using magnetic beads. The stimulatory ODN 1826 (3 μg/ml), that specifically activates through TLR9, lipopolysaccharide (LPS, 10 μg/ml), the anti-chromatin antibodies PL2-3 (50 μg/ml; IgG2a) and PL2-8 (50 μg/ml; IgG2b), two different antibody/protein ratios of α-TNP/TNP-BSA immune complexes (50 μg/ml), or the culture medium only (media), was then added to the dendritic cell cultures. After 48 hours, levels of TNF-α in the culture supernatants was measured by ELISA (results shown as pg/ml; lower level of sensitivity of assay is 50 pg/ml). A representative experiment of 2 similar experiments is shown.

[4] = system: dendritic cells from C57BL/6 mice lacking the Fc receptor γ chain; assay: Dendritic cell TNF-α production, Fc receptor γ chain deficient mice; format: cell-based, mouse; details: Table 2, Fc receptor γ chain deficient dendritic cells; 48 hours
Experimental: as §1

[5] = system: RF+ MyD88−/− B cells; assay: Proliferation of RF+ MyD88-/- B cells; format: cell-based, mouse; details: FIG. 4C
Experimental: To investigate the potential role of TLRs in mediating RF+ B cell responses to autoantibody/autoantigen IC, we crossed the AM14 transgenes onto a MyD88−/− background (Adachi, et al., Immunity 9, 143-150 (1998)). B cells from RF− MyD88+/+ (wildtype), RF+ MyD88+/+, and RF+ MyD88−/− offspring, identified by a combination of PCR and FACS analysis (FIGS. 4A-4B), were assessed for their ability to respond to anti-IgM, CpG ODN, and LPS, as well as to a panel of anti-nucleosome mAbs and autoimmune sera.
Mice. […] Complement receptor genotype was determined by flow cytometry using the FITC-conjugated 7G6 antibody (Pharmingen, San Diego, Calif.). MyD88 genotype was determined by PCR using the primers: MyD88F (5′-TGGCATGCCTCCATCATAGTTAACC-3′) [SEQ ID NO: 1], MyD88R (5′-GTCAGAAACAACCACCACCATGC-3′) [SEQ ID NO: 2], and neoR (5′-ATCGCCTTCTATCGCCTTCTTGACG-3′) [SEQ ID NO: 3] […]
Cell culture and reagents. […] Proliferation was assessed by ^3[H]-thymidine incorporation during the final 16 hours of culture. […] The percentage of the anti-IgM response was calculated according to the formula: [(cpm experimental condition−cpm CD40L alone)/(cpm anti-IgM−cpm CD40L alone)×100].

[6] = Table 1, column 2088: pre-incubated 30 minutes with ODN 2088 at 12 μg/ml
[7] = Table 1, column None: no ODN 2088 pre-incubation, lower level of sensitivity 50 pg/ml
[8] = Table 2, wildtype C57BL/6 dendritic cells

Cl.N [ammonium chloride]
Inhibition of RF+ B cell response to mAb PL2-3 / chromatin-containing IC [1]: inhibited

CO/C1=C\C(C)=C\[C@@H](C)[C@@H](O)[C@@H](C)C/C(C)=C/C=C/[C@H](OC)[C@@H]([C@@H](C)[C@@H](O)[C@H](C)[C@@]2(O)C[C@@H](O)[C@H](C)[C@@H](C(C)C)O2)OC1=O [bafilomycin A]
Inhibition of RF+ B cell response to mAb PL2-3 / chromatin-containing IC [1]: inhibited

CCN(CC)CCCC(C)Nc1ccnc2cc(Cl)ccc12 (stereo not drawn) [chloroquine]
Inhibition of RF+ B cell response to mAb PL2-3 / chromatin-containing IC [1]: completely blocked; also recorded: inhibited
Inhibition of proliferative response to stimulatory CpG S-ODN 1826 ([1]; TLR9 ligand): inhibited
Treatment of autoimmune diseases including rheumatoid arthritis and SLE [2]: effective treatment

C/C=C/[C@H]1O[C@@](O)([C@@H](C)[C@H](O)[C@H](C)[C@H]2OC(=O)/C(OC)=C/C(C)=C/[C@@H](C)[C@@H](O)[C@@H](CC)[C@@H](O)[C@H](C)C/C(C)=C/C=C/[C@@H]2OC)C[C@@H](O[C@H]2C[C@@H](O)[C@H](OC(N)=O)[C@@H](C)O2)[C@@H]1C [concanamycin A]
Inhibition of RF+ B cell response to mAb PL2-3 / chromatin-containing IC [1]: completely blocked

C/C=C/[C@H]1O[C@@](O)([C@@H](C)[C@H](O)[C@H](C)[C@H]2OC(=O)/C(OC)=C/C(C)=C/[C@@H](C)[C@@H](O)[C@@H](C)[C@@H](O)[C@H](C)C/C(C)=C/C=C/[C@@H]2OC)C[C@@H](O[C@H]2C[C@@H](O)[C@H](OC(N)=O)[C@@H](C)O2)[C@@H]1C [concanamycin B]
Inhibition of RF+ B cell response to mAb PL2-3 / chromatin-containing IC [1]: inhibited

DNase
Effect of DNase on RF+ B cell proliferative response to anti-nucleosome mAb PL2-3 or autoimmune serum ([1]; DNase added to assay medium (FIG. 1)): dramatically reduced
Effect of DNase on responses to F(ab')2 anti-IgM and LPS ([1]; FIG. 1, nonspecific toxicity control): unaffected

ODN 1826
Cytokine production by dendritic cells ([3]; 3 μg/ml, 48 hours (FIGS. 8A, 8B)): induces TNF-α and IL-12 production
Co-stimulatory molecule (CD86) expression on dendritic cells ([3]; FIG. 8C): induces upregulation of co-stimulatory molecules
TNF-α in culture supernatants (ELISA) [3, 6]: <50 pg/mL
TNF-α in culture supernatants (ELISA) [3, 7]: 2347 pg/mL
TNF-α in culture supernatants (ELISA) [3, 8]: 7899 pg/mL
TNF-α in culture supernatants (ELISA) [4]: 2373 pg/mL
Proliferative response of B cells from RF+ MyD88-deficient mice [5]: unable to respond

lipopolysaccharide [LPS]
TNF-α in culture supernatants (ELISA) [3, 6]: 2393 pg/mL
TNF-α in culture supernatants (ELISA) [3, 7]: 2514 pg/mL
TNF-α in culture supernatants (ELISA) [3, 8]: 7056 pg/mL
TNF-α in culture supernatants (ELISA) [4]: 3411 pg/mL
Proliferative response of B cells from RF+ MyD88-deficient mice [5]: responded only weakly
